According to patent US9980943B2, “Methods of treating muscular dystrophy” (BOARD OF REGENTS OF THE NEVADA SYSTEM OF HIGHER EDUCATION, …, priority 2013, dated 2018):

Legend:
Format in all cases: cell-based, mouse
[1] = system: α7 integrin (LacZ reporter in α7βgal+/− myoblasts); experiment: Myoblast α7+/LacZ integrin FDG assay (Burkin assay in myoblasts, 96-well); details: α7+/LacZ myoblasts, 96-well
[2] = system: α7 integrin (LacZ reporter in α7+/LacZ myotubes); experiment: Myotube α7 integrin FDG assay (Burkin assay in myotubes, 96-well); details: myotubes
[3] = system: β-galactosidase in CMV-LacZ C2C12 myoblasts; experiment: CMV-LacZ secondary screen in C2C12 myoblasts (β-Gal stabilizing assay); details: CMV-LacZ C2C12 myoblasts
Method in brief: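 C2C12 myoblasts stably carrying a linearized CMV-driven LacZ construct, clone chosen by β-gal level in the myoblast FDG assay. Compounds tested in 96-well dose-response at 0.5, 1, 5, 10, 20 and 40 μM, N=2 replicates per point, to detect β-gal stabilization.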

[4] = system: β-galactosidase in CMV-LacZ C2C12 myotubes; experiment: CMV-LacZ secondary screen in C2C12 myotubes (β-Gal stabilizing assay); details: C2C12 CMV-LacZ myotubes, fold relative to DMSO
Method in brief: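 β-Gal level was the read-out, measured in a clonal C2C12 line expressing LacZ from a CMV promoter. Dose-response curves used six concentrations, 0.5 μM up to 40 μM, with duplicate points.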

SMILES | Burkin Assay in Myoblasts, signal relative to DMSO ([1]; 0.5 uM) | Burkin Assay in Myoblasts, signal relative to DMSO ([1]; 1 uM) | Burkin Assay in Myoblasts, signal relative to DMSO ([1]; 5 uM) | Burkin Assay in Myoblasts, signal relative to DMSO ([1]; 10 uM) | Burkin Assay in Myoblasts, signal relative to DMSO ([1]; 20 uM) | Burkin Assay in Myoblasts, signal relative to DMSO ([1]; 40 uM) | Burkin Assay in Myotubes, α7 integrin LacZ reporter signal relative to DMSO ([2]; 0.5 uM) | Burkin Assay in Myotubes, α7 integrin LacZ reporter signal relative to DMSO ([2]; 1 uM) | Burkin Assay in Myotubes, α7 integrin LacZ reporter signal relative to DMSO ([2]; 5 uM) | Burkin Assay in Myotubes, α7 integrin LacZ reporter signal relative to DMSO ([2]; 10 uM) | Burkin Assay in Myotubes, α7 integrin LacZ reporter signal relative to DMSO ([2]; 20 uM) | Burkin Assay in Myotubes, α7 integrin LacZ reporter signal relative to DMSO ([2]; 40 uM) | CMV-LACZ in Myoblasts (β-galactosidase activity relative to DMSO) ([3]; 0.5 uM) | CMV-LACZ in Myoblasts (β-galactosidase activity relative to DMSO) ([3]; 1 uM) | CMV-LACZ in Myoblasts (β-galactosidase activity relative to DMSO) ([3]; 5 uM) | CMV-LACZ in Myoblasts (β-galactosidase activity relative to DMSO) ([3]; 10 uM) | CMV-LACZ in Myoblasts (β-galactosidase activity relative to DMSO) ([3]; 20 uM) | CMV-LACZ in Myoblasts (β-galactosidase activity relative to DMSO) ([3]; 40 uM) | CMV-LACZ in Myotubes, signal relative to DMSO ([4]; 0.5 uM) | CMV-LACZ in Myotubes, signal relative to DMSO ([4]; 1 uM) | other results
O=c1[nH]c2ccccc2nc1-c1c[nH]c2ccccc12 [MLS001181936-01] | 0.8443 | 0.7562 | 0.8573 | 0.8219 | 0.51 | 0.3285 | 0.9197 | 0.7633 | 0.9856 | 1.024 | 0.5868 | 0.7387 | 0.8487 | 0.9273 | 0.7292 | 0.8296 | 0.7863 | 0.6130 | 1.0705 | 0.9886 | CMV-LACZ in Myotubes, signal relative to DMSO ([4]; 5 uM): 0.9246; CMV-LACZ in Myotubes, signal relative to DMSO ([4]; 10 uM): 1.0274; CMV-LACZ in Myotubes, signal relative to DMSO ([4]; 20 uM): 0.9020; CMV-LACZ in Myotubes, signal relative to DMSO ([4]; 40 uM): 1.0280
Cc1cc(C)cc(OCC(=O)N/N=C/c2ccccn2)c1 [MLS000710669-01] | 1.025 | 1.05 | 1.0722 | 0.9941 | 1.848 | 0.8243 | 1.045 | 1.163 | 1.054 | 0.9 | 0.9967 | 1.0073 | 1.0969 | 0.9975 | 1.0325 | 1.0823 | 1.1319 | 0.8778 | 0.9341 | 0.8881 | CMV-LACZ in Myotubes, signal relative to DMSO ([4]; 5 uM): 0.9690; CMV-LACZ in Myotubes, signal relative to DMSO ([4]; 10 uM): 1.2372; CMV-LACZ in Myotubes, signal relative to DMSO ([4]; 20 uM): 0.8682; CMV-LACZ in Myotubes, signal relative to DMSO ([4]; 40 uM): 1.1824
COc1ccc(CCNC(=O)Cn2nnc(C(=O)Nc3ccc(Br)cc3)c2N)cc1OC [MLS000912699-01] | 1.115 | 1.038 | 0.9322 | 0.9298 | 0.6724 | 0.4392 | 1.175 | 0.9376 | 0.9252 | 0.939 | 0.5217 | 0.6518 | 0.7147 | 0.8744 | 0.9111 | 1.0462 | 0.8826 | 0.5204 | 0.8089 | 0.9859 | CMV-LACZ in Myotubes, signal relative to DMSO ([4]; 5 uM): 0.9419; CMV-LACZ in Myotubes, signal relative to DMSO ([4]; 10 uM): 1.1310; CMV-LACZ in Myotubes, signal relative to DMSO ([4]; 20 uM): 0.9235; CMV-LACZ in Myotubes, signal relative to DMSO ([4]; 40 uM): 0.5365
